{"source": "patent US5308843A", "about": "“Method of inhibiting mammalian topoisomerase II and malignant cell growth in mammals, with substituted (S)-3-methyl-7-oxo-2,3-dihydro-7H-pyrido[1,2,3-de][1,4 ]-benzoxazine(and-benzothiazine)-6-carboxylic acids” (Sterling Drug Inc., priority 1990, dated 1994)", "key": {"P388 leukemia": {"system": "P388 leukemia", "experiment": "In vivo antitumor assay, P388 leukemia (IP)", "parameters": "species or system mice", "details": "for % ILS / Long Term Survivors: P388(IP) 10^6 cells, drug IP", "description": "(§1) In vivo Antitumor Assay Procedure\n(§2) Mice: Inbred: C3H/He; and Hybrids: B6D2F1 (C57BL/6 females×DBA/2 males), CD2F1 (Balb/c females×DBA/2 males) and B6C3F1 (C57BL/6×C3H) were bred at Wayne State University from strains obtained from the Frederick Cancer Research Facility, Frederick, Md. or from commercial suppliers.\n(§3) Tumors: Murine Tumors: P388 leukemia and the following transplantable solid tumors of mice were used for in vivo testing: B16 melanoma, pancreatic ductal adenocarcinoma No. 03, colon adenocarcinoma No. 38 and mammary ductal adenocarcinoma No. 16/C. All tumors are in the Developmental Therapeutics Program frozen tumor repository, maintained by the Biological Testing Branch, Frederick, Md. Each has a detailed description, code identification number, and list of references at the National Tumor Repository. Tumors were maintained in the mouse strain of origin and were transplanted in the appropriate F1 hybrid (or the strain of origin) for therapy trials. The mice were supplied food and water ad libitum.\n(§4) For P388 leukemia and B16 melanoma studies the tumor cells were implanted IP on day zero and treatment was started on day one (also IP). Titered controls were also included to facilitate the calculation of tumor cell kill.\n(§5) End Points for Assessing Antitumor Activity: Quantitative end points used to assess antitumor activity included % Increased Life Span (% ILS), Tumor Cell Kill (Log10 kill), and Tumor Growth Inhibition (T/C). Long Term Survivors (45 or 60 day) were excluded from calculations of % ILS and Tumor Cell Kill.\n(§6) Endpoints were calculated as follows: [formula] where Dt is the median day of death for treated and Dc is the median day of death for control groups.\n(§7) The log10 cell kill was calculated from the following formula: [formula] where T-C is the tumor difference in the median day of death between the treated (T) and the control (C) groups and Td is the tumor doubling time (in days), the latter estimated from the best fit straight line from a log-linear growth plot of the control-group tumors in exponential growth. The conversion of the T-C values to log10 cell kill is possible because the Td for tumors regrowing post-treatment approximated the Td values of the tumors in untreated control mice."}, "[1]": {"experiment": "In vivo antitumor assay, P388 leukemia (IP)", "parameters": "species or system mice", "details": "mouse, in vivo, P388(IP) 10^6 cells, drug IP, read-out: Maximum Tolerated Total Dose", "description": "as §1, §2, §3, §4, §5, §6, §7"}, "[2]": {"experiment": "In vivo antitumor assay, colon adenocarcinoma No. 38 (SC)", "parameters": "species or system mice", "details": "mouse, in vivo; Colon 38 (SC); drug SC; QD3-9; read-out: Maximum Tolerated Total Dose", "description": "as §1, §2, §3\n(§8) Chemotherapy: For pancreatic ductal adenocarcinoma No. 03, colon adenocarcinoma No. 38, and mammary ductal adenocarcinoma No. 16, the following methods were used to help ensure a more uniform tumor burden per mouse (thus reducing the requirement for greater numbers of mice per group), bilateral tumor implants were used. The animals necessary to begin an experiment were pooled, implanted bilaterally s.c. on day zero with 30-60-mg tumor fragments using a 12-gauge trocar, and again pooled before randomization to the various treatment and control groups. Chemotherapy was started within three days after tumor implantation while the number of cells per mouse was relatively small (1×10^7 -1×10^8 cells).\nas §5, §6\n(§9) T/C Value: Tumors were measured with a caliper once or twice weekly (as needed) until either tumors exceeded 1600 mg or cure was assured. Tumor weights were estimated from two-dimensional measurements: Tumor Weight (mg)=(a×b^2)/2, where a and b are the tumor length and width (mm), respectively. Measurements were carried out simultaneously in both the treatment and control groups. When the control group tumors reached approximately 750-1500 mg in size (median of group), the median tumor weight of each group was determined (including zeros). The T/C value in percent is an indication of antitumor effectiveness. […]. […]"}, "[3]": {"system": "colon adenocarcinoma No. 38", "experiment": "In vivo antitumor assay, colon adenocarcinoma No. 38 (SC)", "parameters": "species or system mice", "description": "as §1, §2, §3, §8, §5, §6, §9"}, "[4]": {"experiment": "In vivo antitumor assay, pancreatic ductal adenocarcinoma No. 03 (Panc03, SC)", "parameters": "species or system mice", "details": "mouse, in vivo; Panc03 (SC); drug SC; QD3-9; read-out: Maximum Tolerated Total Dose", "description": "as §1, §2, §3, §8, §5, §6, §9"}, "[5]": {"system": "pancreatic ductal adenocarcinoma No. 03", "experiment": "In vivo antitumor assay, pancreatic ductal adenocarcinoma No. 03 (Panc03, SC)", "parameters": "species or system mice", "description": "as §1, §2, §3, §8, §5, §6, §9"}, "[6]": {"experiment": "In vivo antitumor assay, mammary ductal adenocarcinoma No. 16/C (SC)", "parameters": "species or system mice", "details": "mouse, in vivo; Mam16/C (SC); drug SC; QD1-4; read-out: Maximum Tolerated Total Dose", "description": "as §1, §2, §3, §8, §5, §6, §9"}, "[7]": {"system": "mammary ductal adenocarcinoma No. 16/C", "experiment": "In vivo antitumor assay, mammary ductal adenocarcinoma No. 16/C (SC)", "parameters": "species or system mice", "description": "as §1, §2, §3, §8, §5, §6, §9"}, "[8]": {"experiment": "Toxicity observations in mice of the in vivo antitumor trials", "description": "Dose limiting toxicity appeared to be leukopenia, based on small spleen sizes in necropsy of mice dying at lethal dosage levels. […] Host recovery was rapid, with mice regaining their lost body weight within two to five days post nadir (at the highest non-toxic dosage levels)."}}, "note": "“Also recorded” adds a separate entry of the source.", "data": [{"smiles": "Cc1cc(-c2c(F)cc3c(=O)c(C(=O)O)cn4c3c2SC[C@@H]4C)cc(C)n1", "note": "[Example 5, (S)-10-(2,6-Dimethyl-4-pyridinyl)-9-fluoro-3-methyl-7-oxo-2,3-dihydro-7H-pyrido[1,2,3-de][1,4]benzothiazine-6-carboxylic acid]", "values": [{"measurement": "% ILS", "setting": "P388 leukemia; QD1,5,9, 1014 mg/kg total", "value": 90, "unit": "%"}, {"measurement": "Long Term Survivors", "setting": "P388 leukemia; QD1,5,9, 1014 mg/kg total", "value": "0/6"}, {"measurement": "% ILS", "setting": "P388 leukemia; QD1-7, 504 mg/kg total", "value": 92, "unit": "%"}, {"measurement": "Long Term Survivors", "setting": "P388 leukemia; QD1-7, 504 mg/kg total", "value": "0/5"}, {"measurement": "antitumor activity (in words)", "setting": "P388 leukemia; P388, 90% ILS", "value": "excellent activity"}, {"measurement": "log10 tumor cell kill", "setting": "P388 leukemia; P388, equal to 90% ILS", "value": "5.2-7.0 log10"}, {"measurement": "MTD", "setting": "[1]; QD1,5,9, vehicle 5% EtOH, 1% NaHCO3, 0.3% tween40 (pH 8.3)", "value": 1010, "unit": "mg/kg"}, {"measurement": "MTD", "setting": "[1]; QD1-7, vehicle 3% EtOH, 3% NaHCO3, 1% tween40", "value": 504, "unit": "mg/kg"}, {"measurement": "MTD", "setting": "[2]", "value": 504, "unit": "mg/kg"}, {"measurement": "Long Term Survivors", "setting": "[3]; Colon 38 (SC), drug SC, QD3-9, 504 mg/kg total, footnote 4: Cure, no tumor evident, day 119", "value": "1/5"}, {"measurement": "% T/C", "setting": "[3]; Colon 38 (SC), drug SC, QD3-9, at maximum tolerated total dose 504 mg/kg", "value": 0, "unit": "%"}, {"measurement": "antitumor activity (in words)", "setting": "[3]; Colon Adenocarcinoma 38", "value": "Cure; no tumor evident; day 119; also recorded: clearly active; also recorded: highly active"}, {"measurement": "MTD", "setting": "[4]", "value": 781, "unit": "mg/kg"}, {"measurement": "Long Term Survivors", "setting": "[5]; Panc03 (SC), drug SC, QD3-9, 781 mg/kg total", "value": "0/5"}, {"measurement": "% T/C", "setting": "[5]; Panc03 (SC), drug SC, QD3-9, at maximum tolerated total dose 781 mg/kg", "value": 17, "unit": "%"}, {"measurement": "antitumor activity (in words)", "setting": "[5]; Pancreatic Ductal Adenocarcinoma 03", "value": "clearly active"}, {"measurement": "MTD", "setting": "[6]", "value": 263, "unit": "mg/kg"}, {"measurement": "Long Term Survivors", "setting": "[7]; Mam16/C (SC), drug SC, QD1-4, 263 mg/kg total", "value": "0/5"}, {"measurement": "% T/C", "setting": "[7]; Mam16/C (SC), drug SC, QD1-4, at maximum tolerated total dose 263 mg/kg", "value": 15, "unit": "%"}, {"measurement": "antitumor activity (in words)", "setting": "[7]; Mammary Adenocarcinoma No. 16/C", "value": "clearly active"}, {"measurement": "Dose limiting toxicity", "setting": "[8]; based on small spleen sizes in necropsy of mice dying at lethal dosage levels", "value": "leukopenia"}, {"measurement": "host recovery (in words)", "setting": "[8]; mouse, in vivo", "value": "rapid"}, {"measurement": "host recovery: time to regain lost body weight post nadir", "setting": "[8]; mouse, in vivo", "value": "two to five"}, {"measurement": "tolerability", "setting": "[8]; mouse, in vivo", "value": "well tolerated with no long delayed toxicity problems"}]}]}
